The text below walks through data of ChEMBL document CHEMBL1148822, “Principal component analysis differentiates the receptor binding profiles of three antipsychotic drug candidates from current antipsychotic drugs” (J Med Chem, 2007).

In assay [1] the target is Serotonin 3 (5-HT3) receptor. Particulars: hek293.
Description: Displacement of [3H]BLR-43694 from human 5HT3 receptor expressed in HEK293 cells
Assay [2] has as its target T1, Adrenergic receptor alpha-1 (Rattus norvegicus, UniProt P15823+P23944+P43140).
T1 sequence (P15823 whole entry): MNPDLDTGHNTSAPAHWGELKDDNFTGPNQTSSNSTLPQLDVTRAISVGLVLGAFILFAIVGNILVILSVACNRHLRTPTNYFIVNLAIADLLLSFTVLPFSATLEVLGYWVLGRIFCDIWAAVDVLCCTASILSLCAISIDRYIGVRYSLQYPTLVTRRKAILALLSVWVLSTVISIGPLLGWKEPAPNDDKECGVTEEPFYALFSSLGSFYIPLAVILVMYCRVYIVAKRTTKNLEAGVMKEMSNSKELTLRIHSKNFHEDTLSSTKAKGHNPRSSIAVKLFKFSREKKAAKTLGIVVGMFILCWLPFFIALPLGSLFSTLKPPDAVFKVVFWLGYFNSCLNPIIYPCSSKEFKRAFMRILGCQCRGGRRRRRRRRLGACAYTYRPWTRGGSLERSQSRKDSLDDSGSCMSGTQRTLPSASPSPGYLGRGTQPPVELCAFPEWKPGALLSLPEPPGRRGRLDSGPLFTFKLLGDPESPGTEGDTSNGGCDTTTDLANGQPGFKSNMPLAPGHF
T1 sequence (P23944 whole entry): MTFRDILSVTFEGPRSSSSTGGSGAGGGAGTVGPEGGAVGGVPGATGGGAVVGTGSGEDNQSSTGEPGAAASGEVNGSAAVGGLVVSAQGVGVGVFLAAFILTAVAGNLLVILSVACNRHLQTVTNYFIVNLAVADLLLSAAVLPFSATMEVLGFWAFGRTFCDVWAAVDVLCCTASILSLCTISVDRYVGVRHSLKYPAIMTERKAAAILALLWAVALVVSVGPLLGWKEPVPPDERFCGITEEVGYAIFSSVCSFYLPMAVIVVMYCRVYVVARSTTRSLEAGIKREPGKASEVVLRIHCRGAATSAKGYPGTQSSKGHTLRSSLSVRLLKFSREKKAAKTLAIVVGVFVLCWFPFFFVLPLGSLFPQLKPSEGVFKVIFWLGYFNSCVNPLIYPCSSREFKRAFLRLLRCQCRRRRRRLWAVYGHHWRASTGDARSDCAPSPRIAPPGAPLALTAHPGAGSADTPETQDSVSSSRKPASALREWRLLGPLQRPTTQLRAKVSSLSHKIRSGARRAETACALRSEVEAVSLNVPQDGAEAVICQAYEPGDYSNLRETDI
T1 sequence (P43140 whole entry): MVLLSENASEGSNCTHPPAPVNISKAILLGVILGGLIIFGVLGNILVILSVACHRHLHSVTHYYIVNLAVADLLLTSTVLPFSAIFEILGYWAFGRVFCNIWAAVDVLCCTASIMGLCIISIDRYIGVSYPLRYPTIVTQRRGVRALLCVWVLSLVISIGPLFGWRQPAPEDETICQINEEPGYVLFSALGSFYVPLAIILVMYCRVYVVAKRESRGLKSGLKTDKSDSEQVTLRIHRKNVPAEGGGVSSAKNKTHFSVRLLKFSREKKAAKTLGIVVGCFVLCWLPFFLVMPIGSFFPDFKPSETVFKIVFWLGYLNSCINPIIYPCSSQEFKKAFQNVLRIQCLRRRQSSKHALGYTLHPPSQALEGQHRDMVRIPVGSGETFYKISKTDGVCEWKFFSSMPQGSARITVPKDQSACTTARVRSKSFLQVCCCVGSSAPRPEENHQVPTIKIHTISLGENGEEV
Description: Displacement of [3H]prazosin from adrenergic alpha1 receptor in rat cerebral cortex

Assay [3] deals with T2, 5-hydroxytryptamine receptor 1A (Homo sapiens, UniProt P08908).
T2 sequence (P08908 whole entry): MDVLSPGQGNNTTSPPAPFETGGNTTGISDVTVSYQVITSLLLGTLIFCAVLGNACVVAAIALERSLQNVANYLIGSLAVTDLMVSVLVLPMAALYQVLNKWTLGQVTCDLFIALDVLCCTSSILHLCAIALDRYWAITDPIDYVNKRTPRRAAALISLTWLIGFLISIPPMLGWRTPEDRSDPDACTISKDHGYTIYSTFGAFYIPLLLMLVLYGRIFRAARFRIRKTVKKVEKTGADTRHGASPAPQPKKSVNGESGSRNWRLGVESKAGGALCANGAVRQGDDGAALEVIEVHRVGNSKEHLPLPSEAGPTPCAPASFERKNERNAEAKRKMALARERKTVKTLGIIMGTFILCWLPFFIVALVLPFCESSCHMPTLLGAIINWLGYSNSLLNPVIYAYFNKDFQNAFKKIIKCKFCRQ
The experiment in a line: biochemical.
Description: Displacement of [3H]8-OH-DPAT from human 5HT1A receptor expressed in CHO cells

Assay [4] concerns the target 5-hydroxytryptamine receptor 2B (Homo sapiens, UniProt P41595). The assay is described as follows: biochemical.
Description: Displacement of [3H]LSD from 5HT2B receptor expressed in CHO cells
Assay [5] concerns the target T3, 5-hydroxytryptamine receptor 6 (Homo sapiens, UniProt P50406). The assay is described as follows: biochemical.
Description: (§1) Displacement of [3H]LSD from human 5HT6 receptor expressed in HEK293 cells
The target of assay [6] is 5-hydroxytryptamine receptor 7 (Homo sapiens, UniProt P34969). The assay is described as follows: biochemical.
Chain of 5-hydroxytryptamine receptor 7 (P34969 whole entry): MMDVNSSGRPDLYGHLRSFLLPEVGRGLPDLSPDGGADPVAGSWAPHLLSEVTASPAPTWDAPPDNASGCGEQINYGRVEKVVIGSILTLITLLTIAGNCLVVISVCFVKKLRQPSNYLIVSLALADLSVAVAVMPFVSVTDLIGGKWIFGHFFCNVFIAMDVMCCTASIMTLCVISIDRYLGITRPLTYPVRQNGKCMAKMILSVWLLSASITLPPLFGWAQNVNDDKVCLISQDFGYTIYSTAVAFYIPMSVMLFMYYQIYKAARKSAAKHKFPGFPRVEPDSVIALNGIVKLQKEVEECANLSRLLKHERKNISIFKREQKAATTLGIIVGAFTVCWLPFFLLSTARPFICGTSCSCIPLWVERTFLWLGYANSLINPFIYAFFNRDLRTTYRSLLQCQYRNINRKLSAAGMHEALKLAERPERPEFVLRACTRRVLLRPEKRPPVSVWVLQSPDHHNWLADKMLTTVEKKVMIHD
Description: Displacement of [3H]LSD from human 5HT7 receptor expressed in CHO cells
Assay [7] concerns the target Histamine H1 receptor (Cavia porcellus, UniProt P31389). The assay is described as follows: biochemical.
Description: (§2) Displacement of [3H]pyrilamine from histaminergic H1 receptor guinea pig cerebellum
Assay [8] deals with T4, Adrenergic receptor alpha-2 (Rattus norvegicus, UniProt P22086+P19328+P22909).
T4 sequence (P22086 whole entry): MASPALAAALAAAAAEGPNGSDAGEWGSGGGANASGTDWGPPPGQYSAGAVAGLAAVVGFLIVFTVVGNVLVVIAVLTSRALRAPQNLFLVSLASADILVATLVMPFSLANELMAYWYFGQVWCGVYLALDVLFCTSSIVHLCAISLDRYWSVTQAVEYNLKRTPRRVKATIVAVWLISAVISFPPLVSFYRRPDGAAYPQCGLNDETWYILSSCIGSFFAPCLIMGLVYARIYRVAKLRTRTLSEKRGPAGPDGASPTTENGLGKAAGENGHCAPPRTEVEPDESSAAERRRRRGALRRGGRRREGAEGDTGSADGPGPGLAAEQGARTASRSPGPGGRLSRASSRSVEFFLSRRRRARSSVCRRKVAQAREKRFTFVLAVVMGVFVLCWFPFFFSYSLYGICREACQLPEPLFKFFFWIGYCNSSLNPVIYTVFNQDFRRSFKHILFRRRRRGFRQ
T4 sequence (P19328 whole entry): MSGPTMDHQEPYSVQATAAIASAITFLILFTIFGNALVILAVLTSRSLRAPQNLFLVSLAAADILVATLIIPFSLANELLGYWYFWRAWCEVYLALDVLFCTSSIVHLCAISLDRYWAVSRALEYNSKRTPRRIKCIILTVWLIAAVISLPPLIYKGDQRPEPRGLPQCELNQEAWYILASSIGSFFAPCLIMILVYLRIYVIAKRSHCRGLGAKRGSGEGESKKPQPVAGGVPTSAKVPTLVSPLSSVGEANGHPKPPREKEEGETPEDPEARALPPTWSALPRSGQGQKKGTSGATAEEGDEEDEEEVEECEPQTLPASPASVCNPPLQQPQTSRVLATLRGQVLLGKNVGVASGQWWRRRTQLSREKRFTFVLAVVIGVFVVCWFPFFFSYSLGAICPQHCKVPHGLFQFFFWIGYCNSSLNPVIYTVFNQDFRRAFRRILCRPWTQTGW
T4 sequence (P22909 whole entry): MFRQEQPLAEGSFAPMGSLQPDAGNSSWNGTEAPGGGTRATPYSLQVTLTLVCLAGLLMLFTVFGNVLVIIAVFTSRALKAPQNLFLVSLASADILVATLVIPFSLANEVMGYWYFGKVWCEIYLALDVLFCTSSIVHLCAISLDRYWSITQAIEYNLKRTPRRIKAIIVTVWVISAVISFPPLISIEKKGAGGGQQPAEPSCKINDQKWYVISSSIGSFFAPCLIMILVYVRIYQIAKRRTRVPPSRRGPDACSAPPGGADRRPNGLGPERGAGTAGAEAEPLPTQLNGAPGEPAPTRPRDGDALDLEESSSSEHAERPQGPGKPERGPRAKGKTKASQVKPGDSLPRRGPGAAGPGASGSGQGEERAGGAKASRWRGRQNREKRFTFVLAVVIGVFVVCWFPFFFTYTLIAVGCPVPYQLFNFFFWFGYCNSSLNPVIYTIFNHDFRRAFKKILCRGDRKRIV
Description: Displacement of [3H]RX 821002 from adrenergic alpha-2 receptor in rat cerebral cortex

Assay [9] deals with T5, 5-hydroxytryptamine receptor 2C (Homo sapiens) (UniProt P28335).
T5 sequence (whole entry): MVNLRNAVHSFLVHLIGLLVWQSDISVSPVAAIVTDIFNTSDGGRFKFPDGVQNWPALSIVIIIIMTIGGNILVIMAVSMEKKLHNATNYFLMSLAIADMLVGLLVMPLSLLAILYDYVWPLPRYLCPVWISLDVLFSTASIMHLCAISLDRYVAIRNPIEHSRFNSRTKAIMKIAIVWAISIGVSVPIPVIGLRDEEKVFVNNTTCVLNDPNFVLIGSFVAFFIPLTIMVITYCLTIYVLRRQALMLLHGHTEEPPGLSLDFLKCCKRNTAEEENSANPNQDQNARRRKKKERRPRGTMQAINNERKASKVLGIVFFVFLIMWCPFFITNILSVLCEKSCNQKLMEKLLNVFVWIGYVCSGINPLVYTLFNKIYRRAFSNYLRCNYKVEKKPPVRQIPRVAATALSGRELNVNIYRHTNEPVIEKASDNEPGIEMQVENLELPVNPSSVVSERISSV
To be noted: CHO.
Description: (§3) Displacement of [3H]mesulergine from 5HT2C receptor expressed in CHO cells

Assay [10] has as its target T3, 5-hydroxytryptamine receptor 6. Particulars: HEK293.
Description: as §1
Assay [11] deals with Histamine H1 receptor (Cavia porcellus) (UniProt P31389). To be noted: Cerebellum.
Chain of Histamine H1 receptor (Cavia porcellus) (P31389 whole entry): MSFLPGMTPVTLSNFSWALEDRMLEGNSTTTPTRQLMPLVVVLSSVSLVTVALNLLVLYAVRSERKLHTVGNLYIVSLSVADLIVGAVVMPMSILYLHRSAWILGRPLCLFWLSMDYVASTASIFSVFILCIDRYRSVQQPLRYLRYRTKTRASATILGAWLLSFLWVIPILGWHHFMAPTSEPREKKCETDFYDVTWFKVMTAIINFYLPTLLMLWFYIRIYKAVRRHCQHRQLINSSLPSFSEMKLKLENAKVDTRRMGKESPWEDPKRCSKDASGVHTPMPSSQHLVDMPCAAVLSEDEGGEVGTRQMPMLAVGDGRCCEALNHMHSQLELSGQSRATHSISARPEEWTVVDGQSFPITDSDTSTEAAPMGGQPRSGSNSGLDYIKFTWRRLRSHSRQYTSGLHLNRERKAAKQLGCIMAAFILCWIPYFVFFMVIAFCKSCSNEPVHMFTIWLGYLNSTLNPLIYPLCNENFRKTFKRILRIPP
Description: as §2
Assay [12] addresses 5-hydroxytryptamine receptor 2A (Homo sapiens, UniProt P28223). The experiment in a line: biochemical. Format: cell-based, CHO.
Description: Displacement of [3H]ketanserin from human 5HT2A receptor expressed in CHO cells
Assay [13] concerns the target Sodium-dependent serotonin transporter (Homo sapiens, UniProt P31645). The experiment in a line: biochemical. Format: cell-based, HEK293.
Description: Displacement of [3H]paraxetine from human 5HT transporter expressed in HEK293 cells
In assay [14] the target is T6, D(4) dopamine receptor (Homo sapiens, UniProt P21917).
T6 sequence (P21917 whole entry): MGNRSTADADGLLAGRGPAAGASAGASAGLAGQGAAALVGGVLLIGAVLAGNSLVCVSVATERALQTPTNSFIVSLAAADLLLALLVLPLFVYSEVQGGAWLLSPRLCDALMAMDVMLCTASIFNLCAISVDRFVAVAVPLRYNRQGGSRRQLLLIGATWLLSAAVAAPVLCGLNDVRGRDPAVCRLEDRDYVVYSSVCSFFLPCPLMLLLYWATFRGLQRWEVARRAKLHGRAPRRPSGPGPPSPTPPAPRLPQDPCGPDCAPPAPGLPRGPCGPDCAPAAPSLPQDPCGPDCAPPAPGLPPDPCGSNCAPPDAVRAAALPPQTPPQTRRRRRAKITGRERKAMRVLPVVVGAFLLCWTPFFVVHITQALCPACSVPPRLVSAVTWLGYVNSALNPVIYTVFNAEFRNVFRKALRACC
The assay is described as follows: biochemical.
Description: Displacement of [3H]spiperone from human dopamine D4.4 receptor expressed in CHO cells

For assay [15], the target named is D(3) dopamine receptor (Homo sapiens, UniProt P35462). The experiment in a line: biochemical.
Chain of D(3) dopamine receptor (P35462 whole entry): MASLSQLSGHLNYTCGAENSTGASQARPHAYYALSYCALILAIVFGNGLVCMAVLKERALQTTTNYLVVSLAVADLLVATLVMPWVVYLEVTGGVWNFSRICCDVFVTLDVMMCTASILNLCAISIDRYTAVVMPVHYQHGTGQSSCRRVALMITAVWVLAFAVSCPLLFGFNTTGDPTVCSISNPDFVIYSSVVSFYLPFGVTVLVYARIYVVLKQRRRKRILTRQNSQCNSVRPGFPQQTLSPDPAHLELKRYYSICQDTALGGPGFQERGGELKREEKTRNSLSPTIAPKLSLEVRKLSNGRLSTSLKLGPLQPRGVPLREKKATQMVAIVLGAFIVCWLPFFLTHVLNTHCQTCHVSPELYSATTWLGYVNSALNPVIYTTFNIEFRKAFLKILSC
Description: Displacement of [3H]spiperone from human dopamine D3 receptor expressed in CHO cells
For assay [16], the target named is T7, 5-hydroxytryptamine receptor 2C (Homo sapiens, UniProt P28335).
T7 sequence (P28335 whole entry): T5 sequence (whole entry)
The assay is described as follows: biochemical.
Description: as §3

Molecules are shown by their SMILES. The source made the active and inactive calls. The calls are words filed in the database; no cut-off is given here.

Chain of Histamine H1 receptor (P31389 whole entry): as the sequence (P31389 whole entry) above
T3 sequence (P50406 whole entry): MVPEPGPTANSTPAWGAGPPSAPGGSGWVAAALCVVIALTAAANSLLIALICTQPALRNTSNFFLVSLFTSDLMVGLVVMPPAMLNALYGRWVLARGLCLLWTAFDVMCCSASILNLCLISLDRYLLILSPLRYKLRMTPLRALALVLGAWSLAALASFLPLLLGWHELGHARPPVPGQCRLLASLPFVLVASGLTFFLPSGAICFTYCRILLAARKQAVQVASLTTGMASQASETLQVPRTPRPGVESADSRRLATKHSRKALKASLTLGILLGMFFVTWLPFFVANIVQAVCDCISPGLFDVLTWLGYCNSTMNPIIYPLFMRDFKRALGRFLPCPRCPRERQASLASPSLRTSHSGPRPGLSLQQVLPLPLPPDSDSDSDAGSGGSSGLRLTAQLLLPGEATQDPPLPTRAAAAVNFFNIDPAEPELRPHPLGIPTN
Chain of 5-hydroxytryptamine receptor 2B (P41595 whole entry): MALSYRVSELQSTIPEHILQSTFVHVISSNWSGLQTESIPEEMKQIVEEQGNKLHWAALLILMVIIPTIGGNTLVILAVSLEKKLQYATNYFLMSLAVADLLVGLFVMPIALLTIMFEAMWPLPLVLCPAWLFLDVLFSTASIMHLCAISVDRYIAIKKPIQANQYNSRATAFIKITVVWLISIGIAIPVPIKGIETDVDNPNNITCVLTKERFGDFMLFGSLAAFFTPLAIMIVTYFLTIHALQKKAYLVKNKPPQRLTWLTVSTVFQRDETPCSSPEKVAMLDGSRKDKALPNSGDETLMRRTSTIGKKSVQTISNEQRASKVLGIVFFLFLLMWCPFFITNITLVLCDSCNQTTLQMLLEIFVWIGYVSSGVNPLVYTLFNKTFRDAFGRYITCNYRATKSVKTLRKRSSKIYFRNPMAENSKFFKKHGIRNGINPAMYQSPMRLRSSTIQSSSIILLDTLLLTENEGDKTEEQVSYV
Chain of 5-hydroxytryptamine receptor 2A (P28223 whole entry): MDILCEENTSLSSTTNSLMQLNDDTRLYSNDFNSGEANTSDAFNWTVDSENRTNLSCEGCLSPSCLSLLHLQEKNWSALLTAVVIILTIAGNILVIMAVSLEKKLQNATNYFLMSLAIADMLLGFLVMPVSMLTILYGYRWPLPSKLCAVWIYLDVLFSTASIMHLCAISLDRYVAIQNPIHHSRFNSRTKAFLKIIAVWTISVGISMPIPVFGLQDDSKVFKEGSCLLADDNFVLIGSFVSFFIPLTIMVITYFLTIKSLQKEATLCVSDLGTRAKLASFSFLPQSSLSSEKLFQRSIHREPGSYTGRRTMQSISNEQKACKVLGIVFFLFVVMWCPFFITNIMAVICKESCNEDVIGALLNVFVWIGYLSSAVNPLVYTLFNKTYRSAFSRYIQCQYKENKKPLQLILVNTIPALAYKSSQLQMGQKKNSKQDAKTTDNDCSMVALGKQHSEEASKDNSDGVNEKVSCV
Chain of Sodium-dependent serotonin transporter (P31645 whole entry): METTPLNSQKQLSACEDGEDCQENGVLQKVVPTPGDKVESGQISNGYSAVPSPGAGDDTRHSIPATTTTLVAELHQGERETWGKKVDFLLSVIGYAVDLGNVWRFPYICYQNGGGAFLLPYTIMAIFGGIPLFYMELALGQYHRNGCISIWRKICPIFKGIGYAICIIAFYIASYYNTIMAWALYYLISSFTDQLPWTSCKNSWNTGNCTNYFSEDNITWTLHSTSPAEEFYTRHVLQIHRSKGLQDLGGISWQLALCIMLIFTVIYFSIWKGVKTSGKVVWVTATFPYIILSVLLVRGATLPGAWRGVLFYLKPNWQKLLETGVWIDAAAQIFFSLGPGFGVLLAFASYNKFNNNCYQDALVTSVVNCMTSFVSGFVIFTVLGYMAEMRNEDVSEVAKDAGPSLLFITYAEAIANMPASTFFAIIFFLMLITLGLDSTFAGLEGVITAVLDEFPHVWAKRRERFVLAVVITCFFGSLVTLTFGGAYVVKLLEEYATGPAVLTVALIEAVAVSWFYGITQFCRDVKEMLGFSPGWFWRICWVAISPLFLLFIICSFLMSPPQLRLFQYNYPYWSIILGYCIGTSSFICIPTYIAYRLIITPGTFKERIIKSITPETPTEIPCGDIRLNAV

As a reminder, the Ki is the dissociation constant of the complex between target and ligand, obtained from inhibition or displacement. A lower Ki goes with a stronger hold on the target. On to `O=C1Cc2cc(CCN3CCN(c4nsc5ccccc45)CC3)c(Cl)cc2N1` [ZIPRASIDONE], for which the “Log Ki” value in assay [1] is -6.4; in assay [2], -8.1. Besides, the Ki in [3] is 1.58 nM; in [4] it was 1.58 nM; in [5], 63.1 nM; in [6] it was 5.01 nM; in assay [7], 15.8 nM.
As to `CCN1CCCC1CNC(=O)c1cc(S(=O)(=O)CC)c(N)cc1OC` (configuration not stated) [AMISULPRIDE], in assay [8], the “Log Ki” value is given as -6.9. Besides, the outcome in assay [9], in assay [10] and in [11] was inactive.
Consider `O=C1c2ccccc2C(=O)N1CCCCN1CC=C(c2c[nH]c3ccc(F)cc23)CC1`, for which the Ki is 100 nM in [12]; 0.794 nM in assay [13]; 79.4 nM in assay [14]; 0.794 nM in assay [15]; 2.51 nM in [3]; 1.58 nM in assay [4]. Further, the Ki is 39.8 nM in [16], 398 nM in assay [5], 100 nM in assay [6] and 31.6 nM in assay [7]. Besides, the “Log Ki” value in [8] is given as -6.6.
On to `Fc1ccc(-c2cncc(CN3CCN(c4cccc5c4OCCO5)CC3)c2)cc1` [ADOPRAZINE], for which the “Log Ki” value in assay [2] is -6.3. The same molecule had a Ki in [4] of 12.6 nM. Besides, the result in assay [9], in assay [10] and in [11] was inactive.
With `Cc1nc2n(c(=O)c1CCN1CCC(c3noc4cc(F)ccc34)CC1)CCCC2`, in assay [10], the result was inactive.
For the molecule `C[C@H]1Oc2c(cccc2N2CCN(CCCc3c[nH]c4ccc(F)cc34)CC2)NC1=O`, the inhibition constant Ki was 20 nM in assay [12]; 0.251 nM in assay [13]; 1.58 nM in assay [14]; 0.501 nM in [15]; 5.01 nM in assay [3]; 1 nM in assay [4]. Further, the Ki was 200 nM in [16], 7.94 nM in assay [6] and 126 nM in assay [7]. Besides, the “Log Ki” value in assay [2] is on record as -7.8. In addition, the outcome in [10] was inactive.
`Cc1cc2c(s1)Nc1ccccc1N=C2N1CCN(C)CC1` [OLANZAPINE]: the “Log Ki” value in assay [1] is -6.7.
Turning to `OCCOCCN1CCN(C2=Nc3ccccc3Sc3ccccc32)CC1` [QUETIAPINE], the outcome in assay [9] and in assay [10] was inactive.
